Reference: PubChem BioAssay AID1259334 (Broad Institute, 2017)
Activity calls are given as the source filed them. Rule as the data show it: active = AC50 below about 11 µM.

The compounds below were run on B cell line, TNFa signaling counterscreen reporter (assay: TNFa signaling inhibitors in B cell line, dose response, counter-screen (AID 1259334);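 also: cells stimulated with TNFa after compound preincubation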).

SMILES | AC50
COc1ccc(CC2C(=O)NC(C)C(=O)N(C)C3C(=O)N(C)C(Cc4ccc(O)c(c4)Oc4ccc(cc4)C3O)C(=O)NC(C)C(=O)NC(C)C(=O)N2C)cc1 (configuration not stated) | 0.0133 µM
C[C@@H]1CN([C@@H](C)CO)C(=O)c2ccccc2-c2ccccc2CO[C@@H]1CN(C)Cc1ccc(Oc2ccccc2)cc1 | > 20 µM (inactive)
COC(=O)c1ccccc1-c1c2ccc(=N)cc-2oc2cc(N)ccc12 | 4.57 µM
c1ccc2sc(-c3ccc4c(c3)OCO4)nc2c1 | 8.09 µM
CCCCNC(=O)C1(C)CCN1C(=O)c1cc(-c2cccs2)oc1C (configuration not stated) | 2.59 µM
C[C@H]1CN([C@@H](C)CO)C(=O)c2ccccc2-c2ccccc2CO[C@@H]1CN(C)Cc1ccccc1C(F)(F)F | 7.26 µM
COc1ccc(C(=O)CCN2CCc3cc(OC)c(OC)cc3C2)cc1 | 5.97 µM
CC[C@@]1(O)C(=O)OCc2c1cc1n(c2=O)Cc2cc3c(CN(C)C)c(O)ccc3nc2-1 | 1.01 µM
CC(C)[C@H](N)C(=O)N[C@H]1CCC2C3CC=C4C[C@@H](O)CC[C@]4(C)C3CC[C@@]21C (some centres not stated) | 1.96 µM
Cc1nc(C)c(C(=O)Nc2ncc([N+](=O)[O-])s2)o1 | 8.61 µM
O=C(Nc1ccc(C(F)(F)F)cc1)Nc1ccc2c(c1)[C@H]1C[C@@H](CC(=O)N3CCc4ccccc4C3)O[C@@H](CO)[C@H]1O2 | > 7 µM (inactive)
Cc1ccc(S(=O)(=O)NC(C(=O)Oc2cc3oc(=O)cc(C)c3cc2Cl)C(C)C)cc1 (configuration not stated) | 9.41 µM
Fc1ccccc1CNCCC(Cc1ccccc1)c1ccc2c(c1)OCO2 (configuration not stated) | 3.4 µM
Cc1ccc2c(c1)C(O)(CC(=O)/C=C/C=C/c1ccccc1)C(=O)N2 (configuration not stated) | > 20 µM (inactive)
CCCNC(=O)c1cc2c(c(-c3cccc(-c4cc5ccccc5o4)c3)n1)[C@H](CCO)N(C(=O)NC(C)C)C2 | > 20 µM (inactive)
CNc1c2cccc(C)c2nc2c(C(=O)NCCN(C)C)cccc12 | 0.583 µM

SMILES | AC50
CC(C)(C)CC(C)(C)c1ccc(O)c(Cc2ccc(Cl)cc2Cl)c1 | 5.5 µM
N#C[C@@H]1[C@H](c2ccc(C#CC3CCCCC3)cc2)[C@H](CO)N1C(=O)Nc1ccc(F)cc1 | > 20 µM (inactive)
COc1cc(/C=N/n2cnnc2)ccc1OC(=O)c1ccncc1 | 8.26 µM
C[C@@H]1CN([C@H](C)CO)C(=O)c2c(c3ccccc3n2C)-c2ccccc2CO[C@H]1CN(C)Cc1cccc(C(F)(F)F)c1 | > 20 µM (inactive)
CCC(=O)O[C@]1(C(=O)CCl)[C@@H](C)C[C@H]2[C@@H]3CCC4=CC(=O)C=C[C@]4(C)[C@@]3(F)[C@@H](O)C[C@@]21C | > 20 µM (inactive)
Cc1cc(C(=O)COC(=O)c2ccco2)c(C)n1Cc1ccco1 | 0.111 µM
COC(=O)C1=C(C(=O)OC)C(C(=O)OC)C(C(=O)OC)C(C(=O)OC)(C(=O)OC)C(C(=O)OC)=C1C(=O)OC (configuration not stated) | 4.62 µM
C[C@@H]1CC=CC[C@H](c2ccc(F)cc2)NC(=O)[C@@H](Cc2ccccc2)N(C)C(=O)c2ccccc2O1 (mixture of isomers) | > 20 µM (inactive)
O=C(C1CC1)N1C[C@@H]2N[C@H](C1)[C@@H]2c1ccc(-c2ccncc2)cc1 | 5 µM
O=C(Nc1ccc2c(c1)OCCO2)C1CCCC1 | 1.76 µM
CC(=O)OC1CC2(O)C3CCC4CC(O)CCC4(C)C3CCC2(C)C1C1=CC(=O)OC1 (configuration not stated) | 0.839 µM
Clc1ccc(CSC(Cn2ccnc2)c2ccc(Cl)cc2Cl)cc1 (configuration not stated) | > 20 µM (inactive)
N#C[C@@H]1[C@H](c2ccc(C#CC3CCCCC3)cc2)[C@@H](CO)N1S(=O)(=O)c1ccccc1 | 7.1 µM
CN(C)c1ccc(C(=C2C=CC(=[N+](C)C)C=C2)c2ccc(N(C)C)cc2)cc1 | 0.099 µM
CCCC(=O)NC1=C(Cl)C(=O)c2ccccc2C1=O | 0.712 µM
CC1CC(C)(C)Nc2ccc(OC(=O)c3ccco3)cc21 (configuration not stated) | 2.42 µM
